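Values below derive from 48-hour exposures of cells grown in 96-well plates, with endpoints linearly interpolated between the two concentrations bracketing the appropriate inhibition level. TGI marks complete inhibition of growth.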
Key:
Experiment in all cases: NCI tumour cell line growth inhibition, 48 h
RPMI-8226 leukemia = system: RPMI-8226 leukemia
LOX IMVI melanoma = system: LOX IMVI melanoma
HCC-2998 colon = system: HCC-2998 colon
BT-549 breast = system: BT-549 breast
NCI-H460 lung = system: NCI-H460 lung
SN12C renal = system: SN12C renal
NCI/ADR-RES ovarian = system: NCI/ADR-RES ovarian
IGROV1 ovarian = system: IGROV1 ovarian
HOP-62 NSCLC = system: HOP-62 NSCLC
NCI-H226 lung = system: NCI-H226 lung

## Cc1ccc(-c2cc[n+]3c(n2)oc2ccccc23)cc1
RPMI-8226 leukemia
  TGI: 54.4 µM
LOX IMVI melanoma
  TGI: > 100 µM
HCC-2998 colon
  TGI: > 100 µM
BT-549 breast
  TGI: 76.6 µM
NCI-H460 lung
  TGI: > 100 µM
SN12C renal
  TGI: > 100 µM
NCI/ADR-RES ovarian
  TGI: > 100 µM
IGROV1 ovarian
  TGI: > 100 µM

## CC1SC2(CCCCC2)N(NC(=O)CSc2nc3ccc(Cl)cc3c(=O)n2-c2ccccc2)C1=O (centres undefined)
LOX IMVI melanoma
  TGI: 37.4 µM
HOP-62 NSCLC
  TGI: 34.3 µM
HCC-2998 colon
  TGI: 41.8 µM
BT-549 breast
  TGI: 36.4 µM
NCI-H460 lung
  TGI: 42.7 µM
SN12C renal
  TGI: 32.5 µM
NCI/ADR-RES ovarian
  TGI: 50.2 µM
IGROV1 ovarian
  TGI: 39.4 µM

## O=C(c1cccnc1)N1N=C(c2ccccc2)CC1(O)c1cc(F)c(Cl)cc1Cl (centres undefined)
RPMI-8226 leukemia
  TGI: 55.6 µM
NCI-H226 lung
  TGI: 36.3 µM
LOX IMVI melanoma
  TGI: 30 µM
HOP-62 NSCLC
  TGI: 39.1 µM
BT-549 breast
  TGI: 43.1 µM
NCI-H460 lung
  TGI: 44.7 µM
SN12C renal
  TGI: 39.6 µM
NCI/ADR-RES ovarian
  TGI: 83.7 µM
IGROV1 ovarian
  TGI: 59.9 µM

## CCCCCCCCCCCCCCCCCCNC(=S)/N=C/c1c(O)c2ccccc2[nH]c1=O
NCI-H226 lung
  TGI: 63.3 µM
LOX IMVI melanoma
  TGI: 32.2 µM
HOP-62 NSCLC
  TGI: 33 µM
HCC-2998 colon
  TGI: 31.1 µM
BT-549 breast
  TGI: 38 µM
NCI-H460 lung
  TGI: 32.6 µM
SN12C renal
  TGI: 41 µM
NCI/ADR-RES ovarian
  TGI: 35.1 µM
IGROV1 ovarian
  TGI: 21.2 µM

## CN(CCCNC(=O)c1nn(C)c2c1Cc1ccccc1-2)CCCNC(=O)c1nn(C)c2c1Cc1ccccc1-2
RPMI-8226 leukemia
  TGI: 35.9 µM
LOX IMVI melanoma
  TGI: 21.1 µM
HOP-62 NSCLC
  TGI: 26.8 µM
HCC-2998 colon
  TGI: 23.5 µM
BT-549 breast
  TGI: 47.2 µM
NCI-H460 lung
  TGI: 37.6 µM
SN12C renal
  TGI: 33.8 µM
NCI/ADR-RES ovarian
  TGI: > 68.9 µM
IGROV1 ovarian
  TGI: 35 µM

## O=C1CC(=O)NC(=NN2C(=O)CSC2C(=O)c2ccco2)N1 (centres undefined)
RPMI-8226 leukemia
  TGI: > 100 µM
NCI-H226 lung
  TGI: > 100 µM
HOP-62 NSCLC
  TGI: > 100 µM
HCC-2998 colon
  TGI: > 100 µM
BT-549 breast
  TGI: > 100 µM
NCI-H460 lung
  TGI: > 100 µM
SN12C renal
  TGI: > 100 µM
NCI/ADR-RES ovarian
  TGI: > 100 µM
IGROV1 ovarian
  TGI: > 100 µM

## CN1CCc2c(sc3ncn(Nc4ccc(Cl)cc4)c(=N)c23)C1
RPMI-8226 leukemia
  TGI: > 100 µM
NCI-H226 lung
  TGI: > 100 µM
LOX IMVI melanoma
  TGI: > 100 µM
HOP-62 NSCLC
  TGI: > 100 µM
BT-549 breast
  TGI: > 100 µM
NCI-H460 lung
  TGI: > 100 µM
SN12C renal
  TGI: > 100 µM
NCI/ADR-RES ovarian
  TGI: > 100 µM
IGROV1 ovarian
  TGI: > 100 µM

## C=C(C)[C@H]1C2=CC(C)=C(O2)[C@@H](O)[C@H](C(=C)C)CCC2=C[C@H]1OC2=O
RPMI-8226 leukemia
  TGI: > 100 µM
NCI-H226 lung
  TGI: > 100 µM
LOX IMVI melanoma
  TGI: > 100 µM
HCC-2998 colon
  TGI: > 100 µM
BT-549 breast
  TGI: > 100 µM
NCI-H460 lung
  TGI: > 100 µM
SN12C renal
  TGI: > 100 µM
NCI/ADR-RES ovarian
  TGI: > 100 µM
IGROV1 ovarian
  TGI: > 100 µM

## COC(=O)c1c(C)cccc1C1CN=NC12Cc1cc(C)cc(C)c1C2=O (centres undefined)
NCI-H226 lung
  TGI: > 100 µM
LOX IMVI melanoma
  TGI: 41.5 µM
HOP-62 NSCLC
  TGI: > 100 µM
HCC-2998 colon
  TGI: 68 µM
BT-549 breast
  TGI: > 100 µM
NCI-H460 lung
  TGI: > 100 µM
SN12C renal
  TGI: > 100 µM
NCI/ADR-RES ovarian
  TGI: > 100 µM
IGROV1 ovarian
  TGI: > 100 µM

## Cc1cc2c(cc1C)C(=O)C1(C2)Cc2cc3c(cc2C1=O)CCC3 (centres undefined)
RPMI-8226 leukemia
  TGI: > 100 µM
NCI-H226 lung
  TGI: > 100 µM
HCC-2998 colon
  TGI: > 100 µM
BT-549 breast
  TGI: > 100 µM
NCI-H460 lung
  TGI: > 100 µM
SN12C renal
  TGI: > 100 µM
NCI/ADR-RES ovarian
  TGI: > 100 µM
IGROV1 ovarian
  TGI: > 100 µM

## O=C(N/N=C\c1cccc2ccccc12)Nc1cccc2ccccc12
NCI-H226 lung
  TGI: > 100 µM
LOX IMVI melanoma
  TGI: > 100 µM
HOP-62 NSCLC
  TGI: 23.1 µM
HCC-2998 colon
  TGI: > 100 µM
BT-549 breast
  TGI: > 100 µM
NCI-H460 lung
  TGI: > 100 µM
SN12C renal
  TGI: > 100 µM
NCI/ADR-RES ovarian
  TGI: > 100 µM
IGROV1 ovarian
  TGI: > 100 µM

## Cc1cc2n[n+]3[n-]cc(-c4ccccc4)n3c2cc1[N+](=O)[O-]
RPMI-8226 leukemia
  TGI: > 100 µM
LOX IMVI melanoma
  TGI: > 100 µM
HOP-62 NSCLC
  TGI: > 100 µM
BT-549 breast
  TGI: > 100 µM
NCI-H460 lung
  TGI: > 100 µM
IGROV1 ovarian
  TGI: > 100 µM

## O=C(c1cccs1)N1CCCN(C(=O)c2cccs2)C1=S
RPMI-8226 leukemia
  TGI: > 100 µM
NCI-H226 lung
  TGI: > 100 µM
LOX IMVI melanoma
  TGI: > 100 µM
HOP-62 NSCLC
  TGI: 66.2 µM
BT-549 breast
  TGI: > 100 µM
SN12C renal
  TGI: > 100 µM
NCI/ADR-RES ovarian
  TGI: > 100 µM
IGROV1 ovarian
  TGI: > 100 µM

## O=C(Nc1ccccc1Cl)c1ccc([N+](=O)[O-])cc1
RPMI-8226 leukemia
  TGI: > 100 µM
NCI-H226 lung
  TGI: > 100 µM
LOX IMVI melanoma
  TGI: > 100 µM
HOP-62 NSCLC
  TGI: > 100 µM
HCC-2998 colon
  TGI: > 100 µM
NCI-H460 lung
  TGI: > 100 µM
SN12C renal
  TGI: > 100 µM
IGROV1 ovarian
  TGI: > 100 µM

## COc1cc(C2C3=C(CCCC3=O)N(c3ccc(C)cc3)C3=C2C(=O)CCC3)c([N+](=O)[O-])cc1OC
RPMI-8226 leukemia
  TGI: > 100 µM
NCI-H226 lung
  TGI: > 100 µM
LOX IMVI melanoma
  TGI: > 100 µM
HCC-2998 colon
  TGI: > 100 µM
BT-549 breast
  TGI: > 100 µM
NCI-H460 lung
  TGI: > 100 µM
SN12C renal
  TGI: > 100 µM
NCI/ADR-RES ovarian
  TGI: > 100 µM
IGROV1 ovarian
  TGI: > 100 µM

## COC(=O)C1CCC(=O)N1C(c1cc(OC)c(OC)c(OC)c1)c1cccc2ccccc12 (centres undefined)
RPMI-8226 leukemia
  TGI: > 100 µM
NCI-H226 lung
  TGI: > 100 µM
LOX IMVI melanoma
  TGI: > 100 µM
HOP-62 NSCLC
  TGI: > 100 µM
NCI-H460 lung
  TGI: > 100 µM
SN12C renal
  TGI: > 100 µM
NCI/ADR-RES ovarian
  TGI: > 100 µM
IGROV1 ovarian
  TGI: > 100 µM

## CC(C)C(=O)/C=C/S/C=C/C(=O)C(C)C
NCI-H226 lung
  TGI: 29.2 µM
LOX IMVI melanoma
  TGI: 11.1 µM
HOP-62 NSCLC
  TGI: 86.9 µM
NCI-H460 lung
  TGI: > 100 µM
SN12C renal
  TGI: 29.6 µM
NCI/ADR-RES ovarian
  TGI: 9.63 µM
IGROV1 ovarian
  TGI: 45.8 µM

## CCOC(=O)C(=CNC(=S)N=Nc1c(O)[nH]c2ccccc12)C(=O)OCC
RPMI-8226 leukemia
  TGI: > 100 µM
NCI-H226 lung
  TGI: > 100 µM
LOX IMVI melanoma
  TGI: > 100 µM
HOP-62 NSCLC
  TGI: > 100 µM
HCC-2998 colon
  TGI: > 100 µM
NCI-H460 lung
  TGI: > 100 µM
SN12C renal
  TGI: > 100 µM
NCI/ADR-RES ovarian
  TGI: > 100 µM

## Cc1c(Cl)cccc1N=NC(=O)NNc1cccc(Cl)c1C
RPMI-8226 leukemia
  TGI: > 100 µM
NCI-H226 lung
  TGI: 32.6 µM
LOX IMVI melanoma
  TGI: 35.7 µM
HOP-62 NSCLC
  TGI: 25.4 µM
HCC-2998 colon
  TGI: 31.1 µM
BT-549 breast
  TGI: 27.7 µM
NCI-H460 lung
  TGI: 31.2 µM
SN12C renal
  TGI: 32.4 µM
IGROV1 ovarian
  TGI: 19.6 µM

## C=CC(C)C1(CCCOCc2ccccc2)C(=S)N2CCC3(CC24CCCC14)OCCO3 (centres undefined)
RPMI-8226 leukemia
  TGI: 10.4 µM
NCI-H226 lung
  TGI: > 100 µM
LOX IMVI melanoma
  TGI: > 100 µM
HCC-2998 colon
  TGI: > 100 µM
NCI-H460 lung
  TGI: > 100 µM
SN12C renal
  TGI: > 100 µM
IGROV1 ovarian
  TGI: > 100 µM

## CCOC(=O)CCN1C(=O)C(=O)N(c2ccc(OC)cc2)C1=S
RPMI-8226 leukemia
  TGI: > 100 µM
NCI-H226 lung
  TGI: > 100 µM
LOX IMVI melanoma
  TGI: > 100 µM
HOP-62 NSCLC
  TGI: > 100 µM
HCC-2998 colon
  TGI: > 100 µM
NCI-H460 lung
  TGI: > 100 µM
SN12C renal
  TGI: > 100 µM
NCI/ADR-RES ovarian
  TGI: > 100 µM
IGROV1 ovarian
  TGI: > 100 µM

## C=CCOC(=O)N1c2ccc(O)cc2[C@@]23O[C@@]24[C@@H]1C#C/C=C\C#C[C@]3(O)C(OC)(OC)C[C@@H]4C
RPMI-8226 leukemia
  TGI: 91.5 µM
NCI-H226 lung
  TGI: 74.3 µM
HOP-62 NSCLC
  TGI: 85.9 µM
HCC-2998 colon
  TGI: > 100 µM
NCI-H460 lung
  TGI: 83.3 µM
SN12C renal
  TGI: 61.6 µM
NCI/ADR-RES ovarian
  TGI: > 100 µM
IGROV1 ovarian
  TGI: 80.8 µM

## NCCCNOCCCN
RPMI-8226 leukemia
  TGI: > 100 µM
HOP-62 NSCLC
  TGI: > 100 µM
HCC-2998 colon
  TGI: > 100 µM
NCI-H460 lung
  TGI: > 100 µM
SN12C renal
  TGI: > 100 µM
NCI/ADR-RES ovarian
  TGI: > 100 µM
